Our source for the IC50 values is PubChem BioAssay AID1418 (Emory University Molecular Libraries Screening Center, 2008).

Calls of active or inactive are those of the source. No rule for the calls is given here.

The test deals with Induced myeloid leukemia cell differentiation protein Mcl-1 (Homo sapiens) (UniProt Q07820). Nature of the test: blockers of Bid binding to Mcl-1 – biochemical, TR-FRET, dose response (AID 1418). The following applies: Mcl-1/Bid peptide binding, TR-FRET (europium/Dy647), 2 hr.
Sequence of Induced myeloid leukemia cell differentiation protein Mcl-1 (Homo sapiens) (Q07820 whole entry, looked up): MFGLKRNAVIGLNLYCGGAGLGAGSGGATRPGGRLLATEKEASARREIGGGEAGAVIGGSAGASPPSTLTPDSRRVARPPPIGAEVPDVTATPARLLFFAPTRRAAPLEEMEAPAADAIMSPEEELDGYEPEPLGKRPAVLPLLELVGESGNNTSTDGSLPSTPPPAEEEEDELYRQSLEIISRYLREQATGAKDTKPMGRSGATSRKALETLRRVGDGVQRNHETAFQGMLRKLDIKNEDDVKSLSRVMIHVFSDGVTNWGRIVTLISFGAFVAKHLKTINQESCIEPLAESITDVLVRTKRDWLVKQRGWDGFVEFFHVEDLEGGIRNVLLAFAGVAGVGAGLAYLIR
For the compound `Cc1cc(C)nc(NCC(O)COc2ccccc2C)n1` (stereo not given), the IC50 was > 54 µM (inactive). The result for `O=C(NC(=S)NCc1cccnc1)c1ccc([N+](=O)[O-])cc1` reads > 54 µM (inactive); that for `CC(C)N(C(=O)c1sc2cc([N+](=O)[O-])ccc2c1Cl)C(C)C`, > 54 µM (inactive); that for `COCCn1cc(C(=O)N2CCC(C)CC2)c2c3ccccc3n(C)c2c1=O`, “inactive”. As for `O=S(=O)(c1ccccc1F)N1CCN(Cc2nc3ccccc3[nH]2)CC1`, the IC50 was > 54 µM (inactive).

On to `O=c1[nH]c(O)c(/C=C2/C=CC(c3cc(Cl)ccc3Cl)=N2)c(=O)[nH]1`, for which the IC50 was 1.07 µM. Turning to `CCOc1ccc(/C=C/C(=O)Nc2ccc(N3CCOCC3)cc2)cc1`, the IC50 was > 54 µM (inactive). With `Cc1ccc(N=Nc2c(N)[nH]n3c(=O)cc(-c4ccccc4)nc23)cc1`, the IC50 result is “inactive”.

Take `Cc1ccc2c(c1)C1C=CCC1C(C(=O)O)N2` (stereo not given): the half-maximal inhibitory concentration (IC50) was 2.2 µM.

Consider `COc1ccc2c(c1)c(=O)oc1cc3oc(C)c(C)c3cc12`, for which the IC50 was 17 µM.

`C=CCn1c(O)c(C(C)=NCC2CCCO2)c(=O)[nH]c1=O` (stereo not given): the concentration for half-maximal inhibition (IC50) was 0.48 µM. With `O=C(Nc1ccc2oc(=O)ccc2c1)c1ccc(-c2cccc([N+](=O)[O-])c2)o1`, the IC50 was 0.65 µM. In the case of `O=C1OC(c2ccccc2)=C/C1=C/N1CCCCC1`, the IC50 is > 54 µM (inactive).

In the case of `COc1cc(CNc2ccc(O)cc2)cc(Br)c1OCc1ccccc1F`, the IC50 is > 54 µM (inactive). The result for `CCCCCCCCCCCCCCCC(O)C(N)CO` (stereo not given) reads > 54 µM (inactive); that for `CCS(=O)(=O)c1ccc(S(=O)(=O)CC)s1`, > 54 µM (inactive); that for `COc1cccc(-c2csc(N3CCN(C(=S)Nc4cccc(Cl)c4)CC3)n2)c1`, > 54 µM (inactive). Regarding `O=C(NNC(=O)c1ccccc1Cl)c1ccccc1Cl`, the IC50 is > 54 µM (inactive). Turning to `O=C(CN1C(=O)NC2(CCc3ccccc3C2)C1=O)Nc1ccc(F)cc1` (stereo not given), the IC50 was > 54 µM (inactive).

Consider `CCOC(=O)c1c(C)oc2cc(Br)c(OC(=O)N3CCOCC3)cc12`, for which the IC50 was > 54 µM (inactive). As for `CCN1CCc2c(OCc3ccc(C(=O)OC)o3)cccc2C1=O`, the IC50 was > 54 µM (inactive). Regarding `Cn1nc(-c2ccc(Cl)cc2)c2cc(C(=O)NCCN3CCOCC3)sc21`, the IC50 was > 54 µM (inactive).

Take `CN1C(=O)C(=Cc2sc(=O)n(-c3ccccc3)c2N2CCCCC2)C(=O)N(C)C1=O`: the IC50 is > 54 µM (inactive). `O=C(O)c1cccc(-n2cccc2/C=C2/NC(=O)N(c3ccc(Cl)cc3)C2=O)c1`: the 50% inhibitory concentration (IC50) was 0.53 µM. Regarding `O=C1c2ccccc2C(=O)C1Cc1cccc2ccccc12`, the IC50 is 8.94 µM.

As for `O=C(Nn1cnnc1)c1ccccc1CCc1ccccc1`, the IC50 was > 54 µM (inactive). `O=C(CN1C(=O)/C(=C2\SC(=S)N(C3CCS(=O)(=O)C3)C2=O)c2ccccc21)Nc1ccc(F)cc1` (stereo not given): the concentration for half-maximal inhibition (IC50) was 0.72 µM.

On to `O=C(O)CCCC(=O)Nc1cccc(C(=O)Nc2ccccc2C(=O)O)c1`, for which the IC50 was > 54 µM (inactive). The result for `S=C(NCc1ccc(Cl)cc1)NC1CCN(Cc2ccccc2)CC1` reads > 54 µM (inactive); that for `O=C(/C=C/N1CCOCC1)c1cc2ccccc2o1`, > 54 µM (inactive); that for `O=C(Cn1[nH]c(=O)c2ccccc2c1=O)OCC(=O)N1CCc2ccccc2C1`, > 54 µM (inactive). On to `Cc1ccc2nc(NC(=O)c3ccc(-c4nc5ccccc5s4)s3)sc2c1`, for which the half-maximal inhibitory concentration (IC50) is 1.12 µM. On to `CC(=O)c1ccc(NC(=S)NNC(=O)c2ccncc2)cc1`, for which the IC50 is > 54 µM (inactive). In the case of `CC(=O)Oc1ccc(C(c2ccc(OC(C)=O)cc2)c2ccccn2)cc1`, the IC50 is > 54 µM (inactive).

`Cc1noc2ncnc(SCc3ccc(C(F)(F)F)cc3)c12`: the IC50 was > 54 µM (inactive).

For `O=c1c(C(c2ccccc2)c2c(O)sc3ccccc3c2=O)c(O)sc2ccccc12`, the IC50 was 10.6 µM. The result for `CCN1C(=O)/C(=C\c2ccc(-c3ccc([N+](=O)[O-])cc3OC)o2)SC1=Nc1cccc(C(=O)O)c1` reads > 54 µM (inactive); that for `Cc1ccc2cccc(Oc3ncnc4scc(-c5ccc(Cl)cc5)c34)c2n1`, > 54 µM (inactive); that for `COC(=O)/C(=N/Nc1ccccc1)N1CCCc2ccccc21`, > 54 µM (inactive). The result for `Cc1cc(C)nc(N(C#N)S(=O)(=O)c2ccccc2Cl)n1` reads > 54 µM (inactive); that for `O=C(CCN1C(=O)/C(=C/c2cccc(Br)c2)SC1=S)NNC(=O)c1cccnc1`, 4.52 µM; that for `CCC1Oc2ccc(C)cc2N(CC(=O)N(Cc2cccnc2)Cc2ccc(C)o2)C1=O` (stereo not given), > 54 µM (inactive). The result for `Clc1ccc2nc(CN3CCCc4ccccc43)cn2c1` reads > 54 µM (inactive). Regarding `C#Cc1ccc([C@@H]2C=C(C(=O)N3CCN(Cc4ccc5c(c4)OCO5)CC3)O[C@H](OCCCCO)C2)cc1`, the IC50 is > 54 µM (inactive). For `Cn1c2c(c(=O)n(C)c1=O)C1c3cc(Cl)ccc3OCC1CO2` (stereo not given), the IC50 was > 54 µM (inactive). Regarding `COc1ccc(-n2cccc2/C=C2\C(=N)N3N=C(c4ccco4)SC3=NC2=O)cc1`, the IC50 is 3.22 µM. For the compound `COc1ccc(CN2CCN(c3ccccc3F)CC2)cc1O`, the IC50 was > 54 µM (inactive). On to `Cc1ccc(C)c(NC(=O)C2CCCN2/C=C/C(=O)C(F)(F)F)c1` (stereo not given), for which the IC50 is > 54 µM (inactive).

As to `C=CCn1c(SCc2ccc(C#N)cc2)nnc1-c1cccc(OC)c1`, the IC50 is > 54 µM (inactive).

Turning to `CNc1nn(-c2cccc(Cl)c2)nc1N`, the IC50 was > 54 µM (inactive).

With `COc1ccc(CN2C(=O)c3cccnc3C2Nc2cc(Cl)c(OC)cc2OC)cc1` (stereo not given), the IC50 was 0.84 µM. On to `CCOc1cc(N2CCOCC2)c(OCC)cc1NC(=O)c1cc(-c2ccco2)nc2ccccc12`, for which the half-inhibitory concentration (IC50) is 12.5 µM. For the compound `CC(C)(C)c1nc2ccccc2c2nnc(SCC(=O)Nc3nc4ccccc4s3)n12`, the 50% inhibitory concentration (IC50) was 2.03 µM. On to `Cc1ccc2cc(/C=N/NC(=O)CN3CCOCC3)c(Cl)nc2c1`, for which the IC50 is > 54 µM (inactive). The result for `O=C(Nc1ccc(F)cc1)Nc1ccc(Oc2ncnc3cc(Cl)ccc23)nc1` reads > 54 µM (inactive); that for `CCN(CC)C(=O)COC(=O)c1cc(-c2ccc(OC)cc2)nc2ccccc12`, > 54 µM (inactive); that for `CC1=C(C#N)C(=O)NC(=O)/C1=C\c1ccc(-c2cc(C)c(C)cc2[N+](=O)[O-])o1`, 1.16 µM. Turning to `Cc1cccc2cc(/C=N/NC(=O)CN3CCOCC3)c(Cl)nc12`, the IC50 was > 54 µM (inactive). In the case of `CCOc1ccc(-n2c(-c3ccoc3)nc3ccccc3c2=O)cc1`, the IC50 was > 54 µM (inactive). The result for `O=C(CN(C(=O)CNC(=O)c1ccco1)c1ccc2c(c1)OCO2)NC1CCCCC1` reads > 54 µM (inactive); that for `CN(C)S(=O)(=O)c1cccc(NC(=O)COC(=O)c2cc3ccccc3oc2=O)c1`, > 54 µM (inactive); that for `COc1ccc(-c2nc(-n3c(C)c(C(C)=O)c(C(C)=O)c3C)sc2C)cc1`, > 54 µM (inactive). The result for `O=C1C(C=NCc2ccncc2)=C(O)c2ccccc21` reads > 54 µM (inactive). Consider `O=C(O)c1cc(-c2ccc(/C=C3/SC(=S)N(Cc4ccccc4)C3=O)o2)ccc1Cl`, for which the 50% inhibitory concentration (IC50) was 1.7 µM.

In the case of `CN(C)CC(O)CN(c1ccccc1)c1ccccc1` (stereo not given), the IC50 was > 54 µM (inactive). Turning to `COc1cc(/C=N/Nc2nnc3c(n2)[nH]c2ccccc23)ccc1O`, the IC50 is 2.66 µM. Take `CC(C)N1C(=O)/C(=C/c2nc3ccccc3c(=O)n2-c2ccccc2)c2ccccc21`: the IC50 is 0.99 µM.

Regarding `Cc1cc(-c2ccco2)n2c(nc3ccccc32)c1C#N`, the IC50 is > 54 µM (inactive). The result for `CCN1C(=O)/C(=c2\s/c(=C3\Sc4ccccc4N3C)c(=O)n2C)N(C)C1=S` reads “inactive”; that for `COc1ccc(NC(=O)CN2CCOCC2)cc1`, > 54 µM (inactive); that for `FC(F)(F)c1ccncc1-c1nnnn1-c1ccc(Cl)cc1`, > 54 µM (inactive).

In the case of `CC1CCc2c(sc3ncn(CC(=O)N=Nc4c(O)[nH]c5ccccc45)c(=O)c23)C1` (stereo not given), the IC50 was 1.47 µM. Turning to `O=S(=O)(c1ccc(NC(=S)NCc2cccnc2)cc1)N1CCCCC1`, the IC50 was > 54 µM (inactive). `O=C(NN1C(=O)C2C(C1=O)C1C=CC2C12CC2)c1ccc(Cl)cc1` (stereo not given): the IC50 was > 54 µM (inactive). `Cc1n[nH]c(=S)c2nn(-c3ccccc3)c(C)c12`: the IC50 was > 54 µM (inactive). For `CC(NCc1ccc2c(c1)OCO2)C(=O)NC1CCCc2ccccc21` (stereo not given), the IC50 is > 54 µM (inactive). The result for `O=C(Cn1nc(C(F)(F)F)c2c1CCCC2)NCc1ccco1` reads > 54 µM (inactive); that for `CC1=NN(c2ccccc2)C(=O)/C1=C\c1cn(-c2ccccc2)nc1C`, > 54 µM (inactive); that for `NNc1nc(-c2ccccc2)cs1`, 0.58 µM. Take `CC(=O)Nc1cccc(NC(=O)Nc2ccc(C(C)=O)cc2)c1`: the IC50 is > 54 µM (inactive).

In the case of `COc1cc(NC(=O)COc2ccccc2)c(OC)cc1NC(C)=O`, the IC50 is > 54 µM (inactive). In the case of `O=C(NC1CCCC1)c1csc2c1CCCC2`, the IC50 is > 54 µM (inactive). `COc1ccccc1CN1CCN(C(=O)Cc2ccccc2)CC1`: the IC50 was > 54 µM (inactive). For `Nc1ccc(N)c(C(=O)O)c1`, the IC50 is 28.7 µM.

Regarding `Cc1ccc(S(=O)(=O)CCC(=O)OCC(=O)Nc2ncc(Cl)cc2Cl)cc1`, the IC50 is > 54 µM (inactive).

On to `COc1ccc(OC(=O)c2ccncc2)cc1`, for which the IC50 is > 54 µM (inactive). On to `O=c1cc(-c2ccc([N+](=O)[O-])cc2)nc2cc(-c3ccc(Cl)cc3)[nH]n12`, for which the concentration for half-maximal inhibition (IC50) was 4.96 µM. For the compound `O=C(NC(=S)Nc1ccc(S(=O)(=O)N2CCCCC2)cc1)c1cccs1`, the IC50 was > 54 µM (inactive). The result for `COc1ccc(CN2C(=O)c3cccnc3C2Nc2ccc(OC)c(Cl)c2)cc1` (stereo not given) reads 0.74 µM; that for `Cc1n[nH]c(C)c1S(=O)(=O)N1CCN(c2ccccn2)CC1`, > 54 µM (inactive).
